For nine compounds, activity results are on record in publication PMC8880564, “Design, Synthesis, and Biological Evaluation of a Novel VEGFR-2 Inhibitor Based on a 1,2,5-Oxadiazole-2-Oxide Scaffold with MAPK Signaling Pathway Inhibition” (Pharmaceuticals, 2022).

Holding throughout (assay): NCI-60 one-dose SRB screening
What all share (type): cell-based

The test system of one test is KM12. The conditions noted are these: Homo sapiens, KM12, Colon Cancer, 10 µM one dose, 48 h, read-out: growth percentage.
For a further test, the system named is HOP-92. The following applies: Homo sapiens, HOP-92, Non-Small Cell Lung Cancer, 10 µM one dose, 48 h, read-out: growth percentage.
In another test the test system is OVCAR-5. The conditions noted are these: Homo sapiens, OVCAR-5, Ovarian Cancer, 10 µM one dose, 48 h, read-out: growth percentage.
The next test relates to NCI-H23. The conditions noted are these: Homo sapiens, NCI-H23, Non-Small Cell Lung Cancer, 10 µM one dose, 48 h, read-out: growth percentage.
For a further test, the system named is HCT-116. The conditions noted are these: Homo sapiens, HCT-116, Colon Cancer, 10 µM one dose, 48 h, read-out: growth percentage.
The test system of the next test is OVCAR-3. The following applies: Homo sapiens, OVCAR-3, Ovarian Cancer, 10 µM one dose, 48 h, read-out: growth percentage.
A further test deals with NCI-H460. The following applies: Homo sapiens, NCI-H460, Non-Small Cell Lung Cancer, 10 µM one dose, 48 h, read-out: growth percentage.
The subject of another test is A498. The conditions noted are these: Homo sapiens, A498, Renal Cancer, 10 µM one dose, 48 h, read-out: growth percentage.
The subject of the next test is SF-268. The following applies: Homo sapiens, SF-268, CNS Cancer, 10 µM one dose, 48 h, read-out: growth percentage.
The subject of a further test is MDA-MB-435. The conditions noted are these: Homo sapiens, MDA-MB-435, Melanoma, 10 µM one dose, 48 h, read-out: growth percentage.
In the next test the test system is HS 578T. The following applies: Homo sapiens, Breast Cancer, 10 µM one dose, 48 h, read-out: growth percentage.
In the next test the test system is K-562. The conditions noted are these: Homo sapiens, K562, K-562, Leukemia, 10 µM one dose, 48 h, read-out: growth percentage.
Another test relates to UACC-62. The conditions noted are these: Homo sapiens, UACC-62, Melanoma, 10 µM one dose, 48 h, read-out: growth percentage.
Another test has as its system SR. The conditions noted are these: Homo sapiens, Leukemia, 10 µM one dose, 48 h, read-out: growth percentage.
The test system of the next test is HL-60(TB). The conditions noted are these: Homo sapiens, Leukemia, 10 µM one dose, 48 h, read-out: growth percentage.

`Cc1nn(-c2ccccc2)c2nc(C(F)(F)F)nc(Nc3ccc(NCc4c(-c5ccccc5)no[n+]4[O-])cc3)c12` [12a, 3-(((4-((3-methyl-1-phenyl-6-(trifluoromethyl)-1H-pyrazolo[3,4-d]pyrimidin-4-yl)amino)phenyl)amino)methyl)-4-phenyl-1,2,5-oxadiazole 2-oxide]: the activity at 10 µM in the test on KM12 stood at 56.7%; in the test on HOP-92, 90.1%; with OVCAR-5, 93.7%; with NCI-H23, 96.7%; in the test with HCT-116 it was 41.1%; with OVCAR-3 it was 105%. Besides, the activity at 10 µM was 53% in the test on NCI-H460; 94.4% in the test on A498; 68.6% with SF-268; 78.7% in the test on MDA-MB-435; 77.9% in the test on HS 578T; 39.8% with K-562. The figures for the activity at 10 µM with UACC-62, in the test with SR and in the test on HL-60(TB) were 64.9%, 58.7% and 77.2%, respectively.

Take `[O-][n+]1onc(-c2ccccc2)c1CNc1ccc(Nc2nc(C(F)(F)F)nc3c2cnn3-c2ccc(Br)cc2)cc1` [12b, 3-(((4-((1-(4-bromophenyl)-6-(trifluoromethyl)-1H-pyrazolo[3,4-d]pyrimidin-4-yl)amino)phenyl)amino)methyl)-4-phenyl-1,2,5-oxadiazole 2-oxide]: the activity at 10 µM in the test with KM12 is 41.2%; in the test on HOP-92, 68.4%; in the test on OVCAR-5, 77.2%; in the test on NCI-H23, 72.4%; in the test with HCT-116, 46.7%; with OVCAR-3 it was 92%. In addition, the activity at 10 µM came to 35.6% in the test with NCI-H460; 97.4% in the test on A498; 65% in the test on SF-268; 72.8% in the test on MDA-MB-435; 77.6% with HS 578T; 22.8% in the test with K-562. The activity at 10 µM in the test with UACC-62 worked out at 64.9%; with SR, 43.5%; in the test on HL-60(TB), 79.8%.

Turning to `Cc1nn(-c2ccc(Br)cc2)c2nc(C(F)(F)F)nc(Nc3ccc(NCc4c(-c5ccccc5)no[n+]4[O-])cc3)c12` [12c, 3-(((4-((1-(4-bromophenyl)-3-methyl-6-(trifluoromethyl)-1H-pyrazolo[3,4-d]pyrimidin-4-yl)amino)phenyl)amino)methyl)-4-phenyl-1,2,5-oxadiazole 2-oxide], the activity at 10 µM in the test on KM12 came out at 74.3%; in the test on HOP-92, 82.3%; with OVCAR-5 it was 89.5%; in the test on NCI-H23, 91.6%; in the test with HCT-116, 31.9%; with OVCAR-3 it was 91.6%. In addition, the activity at 10 µM in the test with NCI-H460 was found to be 46.6%; in the test with A498, 117%; with SF-268, 73.2%; in the test on MDA-MB-435, 86.6%; in the test with HS 578T, 83.2%; in the test with K-562 it was 51.4%. Further, the figures for the activity at 10 µM in the test on UACC-62, in the test with SR and with HL-60(TB) were 62.5%, 55.5% and 83.2%, respectively.

As for `O=c1[nH]c(CCl)nc2c1cnn2-c1ccccc1` [13a], the activity at 10 µM turned out to be 101% with KM12; 101% in the test with HOP-92; 111% with OVCAR-5; 101% in the test on NCI-H23; 94.9% in the test with HCT-116; 95.9% in the test on OVCAR-3. In addition, the activity at 10 µM in the test on NCI-H460 stood at 101%; in the test with A498, 77.9%; in the test with SF-268, 99.9%; in the test with MDA-MB-435 it was 95.7%; with HS 578T, 111%; in the test on K-562 it was 87.5%. Besides, the activity at 10 µM is 96.2% in the test with UACC-62, 87.1% in the test on SR and 109% with HL-60(TB).

For `Cc1nn(-c2ccccc2)c2nc(CCl)[nH]c(=O)c12` [13b], the activity at 10 µM with KM12 amounted to 53.3%; in the test on HOP-92, 117%; in the test with OVCAR-5, 110%; in the test with NCI-H23, 98.8%; with HCT-116, 24.9%; with OVCAR-3, 97.4%. Further, the activity at 10 µM with NCI-H460 turned out to be 102%; in the test with A498, 4.55%; in the test on SF-268, 106%; with MDA-MB-435, 99%; in the test with HS 578T, 120%; in the test with K-562, 19.2%. The activity at 10 µM with UACC-62 is 97.9%; in the test with SR, 39.8%; in the test with HL-60(TB) it was 33.1%.

Consider `O=c1[nH]c(CNc2ccc(NCc3c(-c4ccccc4)no[n+]3[O-])cc2)nc2c1cnn2-c1ccccc1` [14a, 3-(((4-(((4-oxo-1-phenyl-4,5-dihydro-1H-pyrazolo[3,4-d]pyrimidin-6-yl)methyl)amino)phenyl)amino)methyl)-4-phenyl-1,2,5-oxadiazole 2-oxide], for which the activity at 10 µM came to 73.3% in the test on KM12; 85.4% with HOP-92; 64.3% with OVCAR-5; 63.4% in the test with NCI-H23; 49.6% in the test with HCT-116; 73.5% with OVCAR-3. Also, the activity at 10 µM stood at 64.2% with NCI-H460; 86% with A498; 73.5% with SF-268; 70.7% with MDA-MB-435; 85.8% with HS 578T; 49.8% with K-562. For the same compound, the figures for the activity at 10 µM in the test on UACC-62, with SR and with HL-60(TB) were 60.6%, 45.7% and 63.1%, respectively.

`Cc1nn(-c2ccccc2)c2nc(CNc3ccc(NCc4c(-c5ccccc5)no[n+]4[O-])cc3)[nH]c(=O)c12` [14b, 3-(((4-(((3-methyl-4-oxo-1-phenyl-4,5-dihydro-1H-pyrazolo[3,4-d]pyrimidin-6-yl)methyl)amino)phenyl)amino)methyl)-4-phenyl-1,2,5-oxadiazole 2-oxide]: the activity at 10 µM was determined as 94.5% in the test on KM12; 93.2% in the test on HOP-92; 95.4% with OVCAR-5; 86.6% in the test with NCI-H23; 79% with HCT-116; 87.6% in the test on OVCAR-3. Besides, the activity at 10 µM was 90% with NCI-H460; 97.9% in the test on A498; 84.9% in the test on SF-268; 91.6% in the test with MDA-MB-435; 104% in the test with HS 578T; 75.8% in the test with K-562. Further, the activity at 10 µM with UACC-62 was 98.5%; in the test with SR, 73%; with HL-60(TB), 93.7%.

On to `Cc1nn(-c2ccc(Br)cc2)c2nc(CNc3ccc(NCc4c(-c5ccccc5)no[n+]4[O-])cc3)[nH]c(=O)c12` [14c, 3-(((4-(((1-(4-bromophenyl)-3-methyl-4-oxo-4,5-dihydro-1H-pyrazolo[3,4-d]pyrimidin-6-yl)methyl)amino)phenyl)amino)methyl)-4-phenyl-1,2,5-oxadiazole 2-oxide], for which the activity at 10 µM with KM12 stood at 106%; with HOP-92, 108%; in the test on OVCAR-5, 110%; in the test on NCI-H23 it was 103%; with HCT-116, 93.8%; in the test with OVCAR-3, 93.9%. Also, the activity at 10 µM in the test on NCI-H460 is 107%; with A498 it was 104%; with SF-268 it was 95.2%; with MDA-MB-435, 101%; with HS 578T it was 108%; with K-562, 111%. In addition, the values for the activity at 10 µM in the test on UACC-62, with SR and in the test on HL-60(TB) were 105%, 95.2% and 103%, respectively.

With `Nc1ccc(NCc2c(-c3ccccc3)no[n+]2[O-])cc1` [compound 11, 3-(((4-aminophenyl)amino)methyl)-4-phenyl-1,2,5-oxadiazole 2-oxide], the activity at 10 µM in the test with KM12 worked out at 103%; in the test with HOP-92, 116%; in the test on OVCAR-5, 116%; in the test with NCI-H23, 105%; with HCT-116 it was 98.4%; in the test on OVCAR-3, 111%. The activity at 10 µM in the test on NCI-H460 was determined as 101%; in the test with A498, 108%; with SF-268, 101%; in the test on MDA-MB-435, 90.2%; with HS 578T, 109%; in the test on K-562, 99.1%. In addition, the activity at 10 µM with UACC-62 turned out to be 95.5%; in the test with SR, 104%; in the test on HL-60(TB) it was 95.5%.
